Data on ten compounds can be found in US20260184726A1, “HETEROCYCLIC COMPOUNDS AS KINASE INHIBITORS, COMPOSITIONS, AND METHODS OF USE THEREOF” (JS INNOMED HOLDINGS LTD., priority 2022, published 2026).

Each structure is given as a SMILES string.

One experiment has as its target T1, BAF3-KIF5B-RET cells (Homo sapiens, UniProt P07949).
T1 construct: fused on or other part: P33176 (Kinesin-1 heavy chain)
Kind of experiment: BAF3-KIF5B-RET Cell Proliferation Assay (CellTiter-Glo). To be noted: growth inhibition, 72 hours; Table 2; read-out: BA/F3-KIF5B-RET Cellular activity. The experiment is classed as cell-based. How it is done:
Compounds disclosed herein were tested for the inhibition of RET by a cancer cell proliferation assay commonly known as CellTiter-Glo assay. In this assay, a complete media was prepared by adding 10% fetal bovine serum to RPMI-1640 medium (Life technology) for RET-driven cancer cells (BAF3-FIF5B-RET, Ba/F3-KIF5B-RET-G810R, Ba/F3-TEL-RET-M918T or Ba/F3-KIF5B-RET-V804M). Individual RET-driven type of cells were added to each of 88 wells of a 96 well plate at a seeding density of 2,000 cells/well/95 μL. The cells were allowed to attach to the plate by incubating at 37° C. for 24 hours. The compound was dissolved in DMSO (SIGMA). A solution of test compound was prepared in complete media by serial dilution to obtain the following concentrations: 20 μM, 6.67 μM, 2.22 μM, 0.74 μM, 0.25 μM, 0.082 μM, 0.027 μM, 0.0091 μM and 0.0030 μM. The test compound solution (5 μL) was added to each of 80 cell-containing wells. The final concentrations of the compound were following: 1 μM, 0.33 μM, 0.11 μM, 0.037 μM, 0.012 μM, 0.0041 μM, 0.0014 μM, 0.00046 μM and 0.00015 μM. The final concentration of DMSO is 0.1%. To the 8 remaining cell-containing wells, only complete media (containing 0.1% DMSO) was added to form a control group in order to measure maximal proliferation. To the remaining 8 empty wells, complete media was added to for a vehicle control group in order to measure background. The plates were incubated at 37° C. for 72 hours. 50 μl of CellTiter-Glo® Reagent was added to each well. Mix contents for 2 minutes on an orbital shaker to induce cell lysis. Incubate at room temperature for 10 minutes to stabilize luminescent signal. Record luminescence on Paradigm. Cell viability (CV %) was calculated relative to vehicle (DMSO) treated control wells. The IC50 was calculated using GraphPad Prism.

The target in another experiment is T2, human Aurora B kinase (Homo sapiens, UniProt Q96GD4).
T2 construct: purchased Carna 05-102
T2 sequence (Q96GD4 whole entry): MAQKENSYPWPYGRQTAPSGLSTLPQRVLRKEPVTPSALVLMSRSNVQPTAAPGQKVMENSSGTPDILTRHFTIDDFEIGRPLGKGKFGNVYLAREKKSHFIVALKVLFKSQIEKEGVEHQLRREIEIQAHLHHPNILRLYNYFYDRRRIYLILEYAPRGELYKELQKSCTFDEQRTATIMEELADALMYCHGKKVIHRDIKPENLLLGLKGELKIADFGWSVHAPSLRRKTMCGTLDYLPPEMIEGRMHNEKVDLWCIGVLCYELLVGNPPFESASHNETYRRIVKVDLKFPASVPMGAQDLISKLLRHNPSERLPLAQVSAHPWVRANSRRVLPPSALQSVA
T2 sequence (Q9NQS7 803-918 partner limits assumed): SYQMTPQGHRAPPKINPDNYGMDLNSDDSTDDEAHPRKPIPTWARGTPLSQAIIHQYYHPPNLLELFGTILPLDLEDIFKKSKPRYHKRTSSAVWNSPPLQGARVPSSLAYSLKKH
In words: Aurora B Kinase Assay (mobility shift assay, ATP at Km). Format: biochemical. To be noted: 15 μM ATP (Km), read-out: AurB Enzymatic Activity. The protocol: Compounds were tested by Mobility shift assay with ATP concentration at Km. The assay used human Aurora B kinase (Carna 05-102). Test compounds were prepared and diluted in DMSO in 3-fold serial dilutions to 50× of the final testing concentrations. The compounds were then further diluted to 5× by the kinase reaction buffer (50 mM HEPES pH 7.5, 0.0015% Brij-35). The enzymatic reaction for compound testing was performed in a white 384-well polypropylene plate (Corning 3573) with a total reaction volume of 25 μl containing 9 nM Aurora B, 3 μM peptide substrate FAM-P21 (GL Biochem 116370), and 15 μM ATP (Sigma A7699-1G). The assay started with loading Aurora B diluted in kinase reaction buffer to wells, followed by addition of equal volume of 5× compounds for 15-min incubation at the room temperature for pre-treatment. The enzymatic reaction was initiated by addition of mixture of the substrate and ATP prepared in kinase reaction buffer. After incubation at 28° C. for one hour, 25 μl of stopper buffer (a mixture of 100 mM HEPES pH 7.5 buffer, 0.015% Brij-35, 50 mM EDTA and 0.2% of coating reagent 3 (Cliper Lifesciences)). After 30 minutes of incubation at room temperature, the plate was read in a Caliper. Percent of control was calculated as the percentage of compound-treated vs 2% DMSO vehicle-treated. The dose-response curves were generated and the IC50 values were calculated by nonlinear sigmoid curve fitting using XLFit.

A further experiment deals with T3, human RET kinase (Homo sapiens, UniProt P07949).
T3 construct: purchased Carna 08-159
T3 sequence (P07949 29-1114): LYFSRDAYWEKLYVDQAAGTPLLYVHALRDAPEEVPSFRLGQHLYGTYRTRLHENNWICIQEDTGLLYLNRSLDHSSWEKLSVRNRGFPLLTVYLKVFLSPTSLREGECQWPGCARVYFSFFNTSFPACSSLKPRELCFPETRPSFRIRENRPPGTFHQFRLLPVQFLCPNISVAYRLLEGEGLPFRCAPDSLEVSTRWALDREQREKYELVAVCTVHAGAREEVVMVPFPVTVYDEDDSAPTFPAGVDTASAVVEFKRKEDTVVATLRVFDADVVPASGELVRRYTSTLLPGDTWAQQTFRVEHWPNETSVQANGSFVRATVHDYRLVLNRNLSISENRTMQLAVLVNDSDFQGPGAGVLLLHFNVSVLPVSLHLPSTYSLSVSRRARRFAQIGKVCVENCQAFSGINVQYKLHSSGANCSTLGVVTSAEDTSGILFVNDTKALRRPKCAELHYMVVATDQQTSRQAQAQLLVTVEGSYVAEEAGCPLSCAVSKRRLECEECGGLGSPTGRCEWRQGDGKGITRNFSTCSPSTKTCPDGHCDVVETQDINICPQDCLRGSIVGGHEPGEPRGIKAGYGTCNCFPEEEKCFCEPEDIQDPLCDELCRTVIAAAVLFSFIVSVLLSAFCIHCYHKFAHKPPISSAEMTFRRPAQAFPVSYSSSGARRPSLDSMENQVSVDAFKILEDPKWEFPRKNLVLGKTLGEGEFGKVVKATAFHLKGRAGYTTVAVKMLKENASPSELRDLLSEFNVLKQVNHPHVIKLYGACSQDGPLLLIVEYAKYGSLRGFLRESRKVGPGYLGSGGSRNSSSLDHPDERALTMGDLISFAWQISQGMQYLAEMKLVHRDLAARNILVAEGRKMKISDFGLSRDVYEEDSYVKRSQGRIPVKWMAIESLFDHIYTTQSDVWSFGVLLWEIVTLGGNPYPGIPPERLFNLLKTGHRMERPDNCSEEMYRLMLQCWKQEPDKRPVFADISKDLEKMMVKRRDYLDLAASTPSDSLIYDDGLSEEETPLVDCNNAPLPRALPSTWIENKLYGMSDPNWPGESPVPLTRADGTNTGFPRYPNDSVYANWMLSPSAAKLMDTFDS
Kind of experiment: RET Kinase Assay (mobility shift assay, ATP at Km). Format: biochemical. The following applies: 23 μM ATP (Km), read-out: RET Enzymatic Activity. How it is done:
Compounds were tested by Mobility shift assay with ATP concentration at Km. The assay used human RET kinase (Carna 08-159). Test compounds were prepared and diluted in DMSO in 3-fold serial dilutions to 50× of the final testing concentrations. The compounds were then further diluted to 5× by the kinase reaction buffer (50 mM HEPES pH 7.5, 0.0015% Brij-35). The enzymatic reaction for compound testing was performed in a white 384-well polypropylene plate (Corning 3573) with a total reaction volume of 25 μl containing 7 nM RET, 3 μM peptide substrate FAM-P2 (GL Biochem 112394), and 23 μM ATP (Sigma A7699-1G). The assay started with loading RET diluted in kinase reaction buffer to wells, followed by addition of equal volume of 5× compounds for 15-min incubation at the room temperature for pre-treatment. The enzymatic reaction was initiated by addition of mixture of the substrate and ATP prepared in kinase reaction buffer. After incubation at 28° C. for one hour, 25 μl of stopper buffer (a mixture of 100 mM HEPES pH 7.5 buffer, 0.015% Brij-35, 50 mM EDTA and 0.2% of coating reagent 3 (Cliper Lifesciences)). After 30 minutes of incubation at room temperature, the plate was read in a Caliper. Percent of control was calculated as the percentage of compound-treated vs 2% DMSO vehicle-treated. The dose-response curves were generated and the IC50 values were calculated by nonlinear sigmoid curve fitting using XLFit.

A further experiment has as its system BAF3 cells. Kind of experiment: BAF3 Cell Proliferation Assay (CellTiter-Glo, without RET driven, IL-3). Format: cell-based. To be noted: Mus musculus; growth inhibition in BAF3 cells, 72 hours, with IL-3; read-out: BAF3 Cellular Activity. How it is done:
Compounds disclosed herein were tested for the inhibition BAF3 cells proliferation without RET driven by CellTiter-Glo assay. In this assay, a complete media was prepared by adding 10% fetal bovine serum and 1 ng/ml IL-3 to RPMI-1640 medium (Life technology) for BAF3 cells. BAF3 cells were added to each of 88 wells of a 96 well plate at a seeding density of 2,000 cells/well/95 μL. The cells were allowed to attach to the plate by incubating at 37° C. for 24 hours. The compound was dissolved in DMSO (SIGMA). A solution of test compound was prepared in complete media by serial dilution to obtain the following concentrations: 200 μM, 66.7 μM, 22.2 μM, 7.4 μM, 2.5 μM, 0.82 μM, 0.27 μM, 0.091 μM and […]. The test compound solution (5 μL) was added to each of 80 cell-containing wells. The final concentrations of the compound were following: 10 μM, 3.33 μM, 1.11 μM, 0.37 μM, 0.12 μM, 0.041 μM, 0.014 μM, 0.0046 μM and 0.0015 μM. The final concentration of DMSO is 0.1%. To the 8 remaining cell-containing wells, only complete media (containing 0.1% DMSO) was added to form a control group in order to measure maximal proliferation. To the remaining 8 empty wells, complete media was added to for a vehicle control group in order to measure background. The plates were incubated at 37° C. for 72 hours. 50 μl of CellTiter-Glo® Reagent was added to each well. The contents were mixed for 2 minutes on an orbital shaker to induce cell lysis, and then were incubated at room temperature for 10 minutes to stabilize luminescent signal. Luminescence was recorded on Paradigm. Cell viability (CV %) was calculated relative to vehicle (DMSO) treated control wells. The IC50 was calculated using GraphPad Prism.
For orientation: ATP-based viability assays read luminescence as a measure of living cells.

T1 sequence (P07949 whole entry, change not shown, the tested form may be a part): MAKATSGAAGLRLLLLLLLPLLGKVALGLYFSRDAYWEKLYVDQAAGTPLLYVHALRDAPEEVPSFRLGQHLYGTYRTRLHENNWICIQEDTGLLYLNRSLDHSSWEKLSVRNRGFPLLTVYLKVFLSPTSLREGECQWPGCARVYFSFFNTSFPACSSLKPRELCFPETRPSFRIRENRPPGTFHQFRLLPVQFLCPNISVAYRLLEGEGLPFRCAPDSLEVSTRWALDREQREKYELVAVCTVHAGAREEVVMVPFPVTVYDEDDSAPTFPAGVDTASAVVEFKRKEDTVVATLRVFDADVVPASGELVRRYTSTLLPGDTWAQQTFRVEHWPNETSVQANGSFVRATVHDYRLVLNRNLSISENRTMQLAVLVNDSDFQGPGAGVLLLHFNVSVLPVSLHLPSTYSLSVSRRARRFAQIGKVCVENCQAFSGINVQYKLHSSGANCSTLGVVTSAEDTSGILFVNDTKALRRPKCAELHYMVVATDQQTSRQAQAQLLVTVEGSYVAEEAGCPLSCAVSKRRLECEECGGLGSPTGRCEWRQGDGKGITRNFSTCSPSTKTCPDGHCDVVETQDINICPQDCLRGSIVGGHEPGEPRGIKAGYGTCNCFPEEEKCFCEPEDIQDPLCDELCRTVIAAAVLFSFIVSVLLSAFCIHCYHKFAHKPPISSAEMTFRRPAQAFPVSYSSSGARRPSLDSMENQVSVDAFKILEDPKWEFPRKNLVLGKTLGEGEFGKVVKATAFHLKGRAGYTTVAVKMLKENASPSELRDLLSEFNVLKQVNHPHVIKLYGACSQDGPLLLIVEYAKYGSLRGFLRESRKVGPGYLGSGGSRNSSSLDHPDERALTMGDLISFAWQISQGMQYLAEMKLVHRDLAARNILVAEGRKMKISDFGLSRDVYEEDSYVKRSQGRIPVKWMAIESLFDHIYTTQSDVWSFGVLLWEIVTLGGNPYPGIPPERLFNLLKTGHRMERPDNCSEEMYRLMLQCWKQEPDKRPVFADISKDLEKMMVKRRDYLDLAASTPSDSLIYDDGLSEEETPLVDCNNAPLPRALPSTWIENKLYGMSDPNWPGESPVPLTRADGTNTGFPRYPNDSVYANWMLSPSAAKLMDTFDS

For the compound `COc1ccc(CN2C3CC2CN(c2ccc(-c4cc(-c5ncc(C(C)(C)O)cn5)cn5ncc(C#N)c45)cn2)C3)cn1` [Example 13, 6-(5-(2-hydroxypropan-2-yl)pyrimidin-2-yl)-4-(6-(6-((6-methoxypyridin-3-yl)methyl)-3,6-diazabicyclo[3.1.1]heptan-3-yl)pyridin-3-yl)pyrazolo[1,5-a]pyridine-3-carbonitrile], the GI50 on BAF3-KIF5B-RET cells worked out at 2.2 nM. In addition, the IC50 at human Aurora B kinase was found to be 183 nM; on human RET kinase, 0.4 nM; in the experiment on BAF3 cells, 2670 nM.
For `COc1ccc(CN2C3CC2CN(c2ccc(-c4cc(-c5ccc(C(C)(C)O)nc5)cn5ncc(C#N)c45)cn2)C3)cn1` [Example 8, 6-(6-(2-hydroxypropan-2-yl)pyridin-3-yl)-4-(6-(6-((6-methoxypyridin-3-yl)methyl)-3,6-diazabicyclo[3.1.1]heptan-3-yl)pyridin-3-yl)pyrazolo[1,5-a]pyridine-3-carbonitrile], in that order: 1.4 nM, 45 nM, 0.38 nM and 1050 nM.
In the case of `CC(C)(O)c1ccc(-c2cc(-c3cnc(N4C[C@@H]5C[C@@](C)(NC(=O)c6ncccc6Cl)C[C@@H]5C4)cn3)c3c(C#N)cnn3c2)nc1` [Example 6, 3-chloro-N-((3aR,5s,6aS)-2-(5-(3-cyano-6-(5-(2-hydroxypropan-2-yl)pyridin-2-yl)pyrazolo[1,5-a]pyridin-4-yl)pyrazin-2-yl)-5-methyloctahydrocyclopenta[c]pyrrol-5-yl)picolinamide], the GI50 on BAF3-KIF5B-RET cells is 3.5 nM. Also, the IC50 in the experiment with BAF3 cells was 38.6 nM.
For `COc1ccc(CN2C3CC2CN(c2ccc(-c4cc(-c5ccc(C(C)(C)N)nc5)cn5ncc(C#N)c45)cn2)C3)cn1` [Example 14, 6-(6-(2-aminopropan-2-yl)pyridin-3-yl)-4-(6-(6-((6-methoxypyridin-3-yl)methyl)-3,6-diazabicyclo[3.1.1]heptan-3-yl)pyridin-3-yl)pyrazolo[1,5-a]pyridine-3-carbonitrile], at BAF3-KIF5B-RET cells, the GI50 stood at 2.8 nM. Also, the IC50 with BAF3 cells is 1000 nM.
Take `COc1ccc(CN2C3CC2CN(c2ccc(-c4cc(-c5cc(C(C)(C)O)nn5C)cn5ncc(C#N)c45)cn2)C3)cn1` [Example 26, 6-(3-(2-hydroxypropan-2-yl)-1-methyl-1H-pyrazol-5-yl)-4-(6-(6-((6-methoxypyridin-3-yl)methyl)-3,6-diazabicyclo[3.1.1]heptan-3-yl)pyridin-3-yl)pyrazolo[1,5-a]pyridine-3-carbonitrile]: the GI50 on BAF3-KIF5B-RET cells turned out to be 46.8 nM. Further, in the experiment on BAF3 cells, the IC50 is over 10000 nM.
In the same order, the values of `COc1ccc(CN2C3CC2CN(c2ccc(-c4cc(-c5ccc(C(C)(C)O)cc5)cn5ncc(C#N)c45)cn2)C3)cn1` [Example 22, 6-(4-(2-hydroxypropan-2-yl)phenyl)-4-(6-(6-((6-methoxypyridin-3-yl)methyl)-3,6-diazabicyclo[3.1.1]heptan-3-yl)pyridin-3-yl)pyrazolo[1,5-a]pyridine-3-carbonitrile] are 0.7 nM and 756 nM.
Consider `COc1ccc(CN2C3CC2CN(c2ccc(-c4cc(-c5ccc(S(N)(=O)=O)cn5)cn5ncc(C#N)c45)cn2)C3)cn1` [Example 36, 6-(3-cyano-4-(6-(6-((6-methoxypyridin-3-yl)methyl)-3,6-diazabicyclo[3.1.1]heptan-3-yl)pyridin-3-yl)pyrazolo[1,5-a]pyridin-6-yl)pyridine-3-sulfonamide], for which the GI50 at BAF3-KIF5B-RET cells was found to be 16.6 nM. Further, the IC50 in the experiment on BAF3 cells came out at 8210 nM.
In the same order, the values of `COc1ccc(CN2C3CC2CN(c2ccc(-c4cc(-c5ccc(C(C)(C)O)s5)cn5ncc(C#N)c45)cn2)C3)cn1` [Example 27, 6-(5-(2-hydroxypropan-2-yl)thiophen-2-yl)-4-(6-(6-((6-methoxypyridin-3-yl)methyl)-3,6-diazabicyclo[3.1.1]heptan-3-yl)pyridin-3-yl)pyrazolo[1,5-a]pyridine-3-carbonitrile] are 0.7 nM and 913 nM.
`COc1ccc(CN2C3CC2CN(c2ccc(-c4cc(-c5ccc(OCC(C)(C)O)nc5)cn5ncc(C#N)c45)cn2)C3)cn1` [Example 33, 6-(6-(2-hydroxy-2-methylpropoxy)pyridin-3-yl)-4-(6-(6-((6-methoxypyridin-3-yl)methyl)-3,6-diazabicyclo[3.1.1]heptan-3-yl)pyridin-3-yl)pyrazolo[1,5-a]pyridine-3-carbonitrile]: the GI50 at BAF3-KIF5B-RET cells was determined as 5.1 nM. Also, in the experiment with BAF3 cells, the IC50 amounted to 2580 nM.
For `COc1ccc(CN2C3CC2CN(c2cnc(-c4cc(-c5ccc(C(C)(C)O)nn5)cn5ncc(C#N)c45)cn2)C3)cn1` [Example 20, 6-(6-(2-hydroxypropan-2-yl)pyridazin-3-yl)-4-(5-(6-((6-methoxypyridin-3-yl)methyl)-3,6-diazabicyclo[3.1.1]heptan-3-yl)pyrazin-2-yl)pyrazolo[1,5-a]pyridine-3-carbonitrile], in that order: 6.7 nM and 1480 nM.
